A value given as a limit tells only on which side of the number the result lay.

One experiment concerns the target Fms kinase (Homo sapiens, UniProt P07333). The experiment can be described thus: Fms kinase biochemical activity assay (AlphaScreen, biotin-(E4Y)10 phosphorylation). The settings on record: 100 μM ATP; read-out: Biochemical Inhibition IC50 Fms. An outline of the steps:
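Fms kinase (1 ng/well) phosphorylating 30 nM biotin-(E4Y)10 with 100 μM ATP in 25 mM Hepes pH 7.5, MgCl2/MnCl2, 5% DMSO, 20 min at 30 °C. Phosphotyrosine detected by AlphaScreen streptavidin donor and PY20 acceptor beads; IC50 from signal versus compound concentration.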

The target in a further experiment is T1, BCR-NTRK3 BaF3 cells (Homo sapiens, UniProt Q16288).
T1 construct: fused on or other part: P11274 (Breakpoint cluster region protein)
T1 sequence (Q16288 whole entry, the tested form may be a part): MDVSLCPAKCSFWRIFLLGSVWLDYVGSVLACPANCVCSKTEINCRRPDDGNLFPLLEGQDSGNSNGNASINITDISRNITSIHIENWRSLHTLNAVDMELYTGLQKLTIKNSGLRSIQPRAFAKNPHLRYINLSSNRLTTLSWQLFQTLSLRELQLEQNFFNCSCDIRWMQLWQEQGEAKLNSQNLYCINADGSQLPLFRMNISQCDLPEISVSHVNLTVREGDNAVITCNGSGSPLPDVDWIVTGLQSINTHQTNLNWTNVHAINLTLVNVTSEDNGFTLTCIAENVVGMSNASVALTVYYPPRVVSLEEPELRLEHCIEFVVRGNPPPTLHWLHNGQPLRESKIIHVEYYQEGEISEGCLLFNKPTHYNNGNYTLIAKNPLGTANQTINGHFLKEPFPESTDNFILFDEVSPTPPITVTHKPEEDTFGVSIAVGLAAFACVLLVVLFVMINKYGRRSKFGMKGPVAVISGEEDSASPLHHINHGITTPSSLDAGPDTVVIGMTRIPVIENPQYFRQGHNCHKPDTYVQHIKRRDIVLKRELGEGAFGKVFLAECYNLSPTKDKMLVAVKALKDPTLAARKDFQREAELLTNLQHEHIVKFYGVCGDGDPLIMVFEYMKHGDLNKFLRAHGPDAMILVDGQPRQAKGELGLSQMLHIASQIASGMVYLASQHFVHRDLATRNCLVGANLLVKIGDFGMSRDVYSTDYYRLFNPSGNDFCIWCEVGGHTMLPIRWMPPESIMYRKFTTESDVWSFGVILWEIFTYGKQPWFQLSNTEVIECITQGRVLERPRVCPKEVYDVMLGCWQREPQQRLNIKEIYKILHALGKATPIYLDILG
In words: BaF3 BCR-NTRK3 cell proliferation assay (ATPlite). In kind it is cell-based. The settings on record: read-out: Inhibition of Cell Proliferation IC50, BCR/BaF3 TrkC. An outline of the steps:
(§1)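 Growth inhibition over 3 days at 37 °C; IC50 from ATPlite luminescence, 8 concentrations (1:3 steps, max 10 μM). BaF3 fusion lines were tested without IL-3.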

The target in a further experiment is T2, BCR-KIT BaF3 cells (Homo sapiens, UniProt P10721).
T2 construct: fused on or other part: P11274 (Breakpoint cluster region protein)
T2 sequence (P10721 589-937): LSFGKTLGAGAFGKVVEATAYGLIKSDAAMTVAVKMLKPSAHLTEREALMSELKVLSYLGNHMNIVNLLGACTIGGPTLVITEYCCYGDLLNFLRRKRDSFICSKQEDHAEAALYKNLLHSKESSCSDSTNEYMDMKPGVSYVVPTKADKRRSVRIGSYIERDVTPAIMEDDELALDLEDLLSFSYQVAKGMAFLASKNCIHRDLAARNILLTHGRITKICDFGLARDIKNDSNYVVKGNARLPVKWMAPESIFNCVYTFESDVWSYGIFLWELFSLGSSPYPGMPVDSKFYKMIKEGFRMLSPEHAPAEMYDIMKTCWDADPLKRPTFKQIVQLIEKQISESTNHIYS
In words: BaF3 BCR-KIT cell proliferation assay (ATPlite). In kind it is cell-based. The settings on record: read-out: Inhibition of Cell Proliferation IC50, BCR/BaF3 Kit. A digest of the protocol:
as §1

A further experiment concerns the target T3, BCR-NTRK2 BaF3 cells (Homo sapiens, UniProt Q16620).
T3 construct: fused on or other part: P11274 (Breakpoint cluster region protein)
In words: BaF3 BCR-NTRK2 cell proliferation assay (ATPlite). Type of experiment: cell-based. The settings on record: read-out: Inhibition of Cell Proliferation IC50, BCR/BaF3 TrkB. An outline of the steps:
as §1

Chain of Fms kinase (P07333 20-972): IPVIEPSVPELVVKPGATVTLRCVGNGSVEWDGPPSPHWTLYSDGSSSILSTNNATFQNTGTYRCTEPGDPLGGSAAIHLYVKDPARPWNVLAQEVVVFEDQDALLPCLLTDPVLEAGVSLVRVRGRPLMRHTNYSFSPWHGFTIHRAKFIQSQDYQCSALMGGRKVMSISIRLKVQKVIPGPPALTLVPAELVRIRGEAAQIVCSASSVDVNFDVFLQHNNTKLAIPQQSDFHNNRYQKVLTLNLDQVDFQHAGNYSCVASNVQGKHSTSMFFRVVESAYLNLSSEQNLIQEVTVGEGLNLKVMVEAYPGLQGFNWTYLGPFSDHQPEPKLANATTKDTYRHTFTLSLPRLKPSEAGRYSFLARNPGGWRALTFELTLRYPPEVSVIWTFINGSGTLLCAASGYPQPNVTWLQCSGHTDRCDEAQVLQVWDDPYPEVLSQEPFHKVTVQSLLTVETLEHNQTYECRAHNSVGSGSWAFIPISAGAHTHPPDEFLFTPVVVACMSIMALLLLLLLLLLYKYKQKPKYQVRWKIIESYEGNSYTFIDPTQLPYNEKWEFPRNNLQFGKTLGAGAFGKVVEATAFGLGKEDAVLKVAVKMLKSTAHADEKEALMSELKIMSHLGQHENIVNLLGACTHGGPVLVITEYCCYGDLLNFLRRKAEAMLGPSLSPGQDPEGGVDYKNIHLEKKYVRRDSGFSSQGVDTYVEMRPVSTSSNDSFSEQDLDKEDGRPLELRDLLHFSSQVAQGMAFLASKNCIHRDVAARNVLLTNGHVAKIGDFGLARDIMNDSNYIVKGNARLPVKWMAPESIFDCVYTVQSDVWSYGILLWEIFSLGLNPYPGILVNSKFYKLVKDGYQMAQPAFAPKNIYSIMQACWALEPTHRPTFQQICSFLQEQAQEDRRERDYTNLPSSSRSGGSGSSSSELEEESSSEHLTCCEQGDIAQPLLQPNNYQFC
T3 sequence (Q16620 538-807): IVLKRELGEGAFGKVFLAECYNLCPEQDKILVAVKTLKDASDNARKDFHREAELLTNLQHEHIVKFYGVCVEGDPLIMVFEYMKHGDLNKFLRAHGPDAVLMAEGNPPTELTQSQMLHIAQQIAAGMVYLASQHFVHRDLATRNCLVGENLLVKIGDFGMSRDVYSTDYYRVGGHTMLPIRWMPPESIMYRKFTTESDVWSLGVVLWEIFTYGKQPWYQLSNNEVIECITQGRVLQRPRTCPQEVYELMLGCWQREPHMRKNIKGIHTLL

Turning to `Clc1cnc2[nH]cc(Cc3cnc(NC4CCC4)nc3)c2c1` [Compound P-3007, [5-(5-Chloro-1H-pyrrolo[2,3-b]pyridin-3-ylmethyl)-pyrimidin-2-yl]-cyclobutyl-amine], the IC50 was < 1000 nM at Fms kinase, > 10000 nM at BCR-NTRK3 BaF3 cells, > 10000 nM at BCR-KIT BaF3 cells and > 10000 nM at BCR-NTRK2 BaF3 cells.

Take `Cc1cnc2[nH]cc(Cc3ccc(NC4CCCCC4)nc3F)c2c1` [Compound P-3008, cyclohexyl-[6-fluoro-5-(5-methyl-1H-pyrrolo[2,3-b]pyridin-3-ylmethyl)-pyridin-2-yl]-amine]: the IC50 on Fms kinase was < 100 nM; on BCR-KIT BaF3 cells, > 1000 nM.

As to `O=C(c1ccc(Nc2ccc(C3CC3)nc2)nc1F)c1c[nH]c2ncnc(C3CC3)c12` [Compound P-4040, [6-(6-Cyclopropyl-pyridin-3-ylamino)-2-fluoro-pyridin-3-yl]-(4-cyclopropyl-7H-pyrrolo[2,3-d]pyrimidin-5-yl)-methanone], the IC50 was < 100 nM on Fms kinase, < 10 nM at BCR-NTRK3 BaF3 cells, < 100 nM at BCR-KIT BaF3 cells and < 10 nM on BCR-NTRK2 BaF3 cells.

As to `Fc1nc(Nc2ccc(C3CC3)nc2)ccc1Cc1c[nH]c2ncnc(C3CC3)c12` [Compound P-4041, (6-Cyclopropyl-pyridin-3-yl)-[5-(4-cyclopropyl-7H-pyrrolo[2,3-d]pyrimidin-5-ylmethyl)-6-fluoro-pyridin-2-yl]-amine], the IC50 is < 100 nM at Fms kinase, < 10 nM on BCR-NTRK3 BaF3 cells, < 100 nM at BCR-KIT BaF3 cells and < 10 nM at BCR-NTRK2 BaF3 cells.

Turning to `Nc1ncnc2[nH]cc(C(=O)c3ccc(NC4CCC(F)(F)CC4)nc3Cl)c12` [Compound P-4046, (4-amino-7H-pyrrolo[2,3-d]pyrimidin-5-yl)-[2-chloro-6-[(4,4-difluorocyclohexyl)amino]-3-pyridyl]methanone], the IC50 at Fms kinase was < 100 nM; at BCR-NTRK3 BaF3 cells, < 1000 nM; on BCR-KIT BaF3 cells, < 1000 nM; on BCR-NTRK2 BaF3 cells, < 1000 nM.

`CC(C)=CNc1ncnc2[nH]cc(C(=O)c3ccc(NC4CCC(F)(F)CC4)nc3Cl)c12` [Compound P-4047, [2-chloro-6-[(4,4-difluorocyclohexyl)amino]-3-pyridyl]-[4-(2-methylprop-1-enylamino)-7H-pyrrolo[2,3-d]pyrimidin-5-yl]methanone]: the IC50 at Fms kinase, on BCR-NTRK3 BaF3 cells, at BCR-KIT BaF3 cells and at BCR-NTRK2 BaF3 cells was > 1000 nM throughout.

Consider `Nc1ncnc2[nH]cc(C(=O)c3ccc(Nc4ccc(C5CC5)nc4)nc3F)c12` [Compound P-4048, (4-amino-7H-pyrrolo[2,3-d]pyrimidin-5-yl)-[6-[(6-cyclopropyl-3-pyridyl)amino]-2-fluoro-3-pyridyl]methanone], for which the IC50 at Fms kinase is < 10 nM; at BCR-NTRK3 BaF3 cells, < 10 nM; on BCR-KIT BaF3 cells, < 1000 nM; at BCR-NTRK2 BaF3 cells, < 10 nM.

Regarding `CC(C)(O)CNc1ncnc2[nH]cc(C(=O)c3ccc(Nc4ccc(C5CC5)nc4)nc3F)c12` [Compound P-4049, [6-[(6-cyclopropyl-3-pyridyl)amino]-2-fluoro-3-pyridyl]-[4-[(2-hydroxy-2-methyl-propyl)amino]-7H-pyrrolo[2,3-d]pyrimidin-5-yl]methanone], the IC50 is < 10 nM at Fms kinase, < 1000 nM on BCR-NTRK3 BaF3 cells, < 1000 nM on BCR-KIT BaF3 cells and < 1000 nM at BCR-NTRK2 BaF3 cells.

On to `CCNc1ncnc2[nH]cc(C(=O)c3ccc(NC4CCC(F)(F)CC4)nc3Cl)c12` [Compound P-4050, [2-chloro-6-[(4,4-difluorocyclohexyl)amino]-3-pyridyl]-[4-(ethylamino)-7H-pyrrolo[2,3-d]pyrimidin-5-yl]methanone], for which the IC50 was < 1000 nM at Fms kinase, < 1000 nM at BCR-NTRK3 BaF3 cells, > 1000 nM at BCR-KIT BaF3 cells and < 1000 nM on BCR-NTRK2 BaF3 cells.

In the case of `CCNc1ncnc2[nH]cc(C(=O)c3cnc(NC4CCC(F)(F)CC4)c(F)c3)c12` [Compound P-4051, [6-[(4,4-difluorocyclohexyl)amino]-5-fluoro-3-pyridyl]-[4-(ethylamino)-7H-pyrrolo[2,3-d]pyrimidin-5-yl]methanone], the IC50 is < 1000 nM at Fms kinase, < 10 nM on BCR-NTRK3 BaF3 cells, > 1000 nM on BCR-KIT BaF3 cells and < 10 nM on BCR-NTRK2 BaF3 cells.

Turning to `O=C(c1cnc(NC2CCC(F)(F)CC2)c(F)c1)c1c[nH]c2ncnc(NCC(F)(F)F)c12` [Compound P-4052, [6-[(4,4-difluorocyclohexyl)amino]-5-fluoro-3-pyridyl]-[4-(2,2,2-trifluoroethylamino)-7H-pyrrolo[2,3-d]pyrimidin-5-yl]methanone], the IC50 at Fms kinase is < 1000 nM; on BCR-NTRK3 BaF3 cells, < 10 nM; at BCR-KIT BaF3 cells, > 1000 nM; at BCR-NTRK2 BaF3 cells, < 1000 nM.

For `O=C(c1cnc(NC2CCC(F)(F)CC2)c(F)c1)c1c[nH]c2ncnc(NC3CC3)c12` [Compound P-4053, [4-(cyclopropylamino)-7H-pyrrolo[2,3-d]pyrimidin-5-yl]-[6-[(4,4-difluorocyclohexyl)amino]-5-fluoro-3-pyridyl]methanone], the IC50 on Fms kinase was < 10 nM; on BCR-NTRK3 BaF3 cells, < 10 nM; at BCR-KIT BaF3 cells it was < 1000 nM; on BCR-NTRK2 BaF3 cells, < 10 nM.

As to `CNc1ncnc2[nH]cc(C(=O)c3cnc(NC4CCC(F)(F)CC4)c(F)c3)c12` [Compound P-4054, [6-[(4,4-difluorocyclohexyl)amino]-5-fluoro-3-pyridyl]-[4-(methylamino)-7H-pyrrolo[2,3-d]pyrimidin-5-yl]methanone], the IC50 on Fms kinase was < 10 nM; at BCR-NTRK3 BaF3 cells, < 10 nM; at BCR-KIT BaF3 cells, < 1000 nM; on BCR-NTRK2 BaF3 cells it was < 1000 nM.

For the origin of these results see patent US8901118B2, “Compounds and methods for kinase modulation, and indications therefor” (Plexxikon Inc., priority 2010, dated 2014).
